Experimental findings from US9498483B2, “2,3,5-trisubstituted thiophene compounds and uses thereof” (priority 2010, dated 2016) are described below.

SMILES strings stand for the structures. Where only a bound is given, the exact number is not on record here.

The target of one assay is T1, HCV polymerase (Hepatitis C virus genotype 1b, UniProt Q9WMX2).
T1 construct: (His)6 (C); made in house; host or cells: XL-1 cells (E. coli, by own knowledge)
As to the kind of experiment: Polymerase assay of Biological Example 1 (IC50 values of Table 3). It counts as biochemical. The conditions noted are these: IC50 values of Table 3, polymerase assay of Biological Example 1; read-out: NS5B-enzyme3.

The subject of assay [1] is HCV replicon I389luc-ubi-neo/NS3-3′/ET in ET (Huh-lucubineo-ET) cells. Description: Replicon assay (Biological Example 2), luciferase readout. The conditions noted are these: Hepatitis C virus. The assay is classed as cell-based. The procedure, abridged:
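EC50 values come from Hill fits of % inhibition of replicon-driven firefly luciferase, relative to no-compound wells. Compounds were serially diluted (10 points, 3-fold, 0.1 nM–50 μM final, 0.5% DMSO) onto ET replicon cells and read after 48 h.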

Where [2] appears, read: ET cells, luciferase activity 48 hours after compound.

Consider `O=C(O)c1sc(-c2ccccc2)cc1N1C(=O)CN(S(=O)(=O)c2ccc(F)c(C(F)(F)F)c2)CC1C1CCCCC1` (centres unmarked) [Compound 66, 3-[2-Cyclohexyl-4-(4-fluoro-3-trifluoromethyl-benzenesulfonyl)-6-oxo-piperazin-1-yl]-5-phenyl-thiophene-2-carboxylic acid], for which the IC50 at HCV polymerase was 49 nM; in assay [1] (between 100 nM and 5.0 uM), 100 to 5000 nM.

Consider `O=C(O)c1sc(-c2ccccc2)cc1N1C(=O)CN(C(=O)c2ccccc2)C[C@H]1C1CCCCC1` [Compound 16, 3-((R)-4-Benzoyl-2-cyclohexyl-6-oxo-piperazin-1-yl)-5-phenyl-thiophene-2-carboxylic acid], for which the figures for the IC50 (on HCV polymerase; in assay [1] (setting [2])) were 420 nM and no less than 5000 nM, respectively.

Take `CC(C)(C)C#Cc1cc(N2C(=O)C(C)(C)OC[C@H]2C2CCCCC2)c(C(=O)O)s1` [Compound 290, 3-((R)-5-Cyclohexyl-2,2-dimethyl-3-oxomorpholin-4-yl)-5-(3,3-dimethyl-but-1-ynyl)-thiophene-2-carboxylic acid]: the IC50 was 2 nM on HCV polymerase and no more than 100 nM in assay [1] (setting [2]).

On to `CCc1ccc(S(=O)(=O)N2CC(=O)N(c3cc(-c4ccccc4)sc3C(=O)O)C(C3CCCCC3)C2)cc1` (centres unmarked) [Compound 56, 3-[2-Cyclohexyl-4-(4-ethyl-benzenesulfonyl)-6-oxo-piperazin-1-yl]-5-phenyl-thiophene-2-carboxylic acid], for which the IC50 at HCV polymerase is 7.1 nM; in assay [1] (between 100 nM and 5.0 uM) it was 100 to 5000 nM.

`CC1(C)CCN(c2ccc(S(=O)(=O)N3CC(=O)N(c4cc(-c5ccc(Cl)cc5)sc4C(=O)O)[C@H](C4CCCCC4)C3)cn2)C1` [Compound 292, 5-(4-Chloro-phenyl)-3-{(R)-2-cyclohexyl-4-[6-(3,3-dimethyl-pyrrolidin-1-yl)-pyridine-3-sulfonyl]-6-oxo-piperazin-1-yl}-thiophene-2-carboxylic acid]: the IC50 was 2.3 nM on HCV polymerase and no more than 100 nM in assay [1] (setting [2]).

Regarding `O=C1CC(=O)N(c2cc(-c3ccccc3)sc2C(=O)O)C(C2CCCCC2)C1` (centres unmarked) [Compound 9, 3-(2-Cyclohexyl-4,6-dioxo-piperidin-1-yl)-5-phenyl-thiophene-2-carboxylic acid], the IC50 on HCV polymerase was 80 nM; in assay [1] (setting [2]), no less than 5000 nM.

As to `O=C(O)c1sc(-c2ccccc2)cc1N1C(=O)CN(S(=O)(=O)c2ccc(NC3CCCCC3)nc2)CC1C1CCCCC1` (centres unmarked) [Compound 75, 3-[2-Cyclohexyl-4-(6-cyclohexylamino-pyridine-3-sulfonyl)-6-oxo-piperazin-1-yl]-5-phenyl-thiophene-2-carboxylic acid], the IC50 is 8 nM at HCV polymerase and no more than 100 nM in assay [1] (setting [2]).

Take `CCN(CC)c1ccc(S(=O)(=O)N2CC(=O)N(c3cc(-c4ccccc4)sc3C(=O)O)C(C3CCCCC3)C2)cn1` (centres unmarked) [Compound 69, 3-[2-Cyclohexyl-4-(6-diethylamino-pyridine-3-sulfonyl)-6-oxo-piperazin-1-yl]-5-phenyl-thiophene-2-carboxylic acid]: the values for the IC50 (on HCV polymerase; in assay [1] (setting [2])) were 2 nM and no more than 100 nM, respectively.

With `O=C(O)c1sc(-c2ccccc2)cc1N1C(=O)CN(S(=O)(=O)c2ccc(N3CC[C@H](F)C3)nc2)CC1C1CCCCC1` (stereo partly drawn) [Compound 121, 3-{2-Cyclohexyl-4-[6-((S)-3-fluoro-pyrrolidin-1-yl)-pyridine-3-sulfonyl]-6-oxo-piperazin-1-yl}-5-phenyl-thiophene-2-carboxylic acid], the IC50 on HCV polymerase is 7 nM; in assay [1] (setting [2]), no more than 100 nM.

As to `COc1cccc(S(=O)(=O)N2CC(=O)N(c3cc(-c4ccccc4)sc3C(=O)O)[C@H](C3CCCCC3)C2)c1` [Compound 107, 3-[(R)-2-Cyclohexyl-4-(3-methoxy-benzenesulfonyl)-6-oxo-piperazin-1-yl]-5-phenyl-thiophene-2-carboxylic acid], the IC50 on HCV polymerase is less than 1 nM; in assay [1] (between 100 nM and 5.0 uM), 100 to 5000 nM.

Consider `CC(C)(C)c1ccc(-c2cc(N3C(=O)CCCC3C3CCCCC3)c(C(=O)O)s2)cc1` (centres unmarked) [Compound 113, 5-(4-tert-Butyl-phenyl)-3-(2-cyclohexyl-6-oxo-piperidin-1-yl)-thiophene-2-carboxylic acid], for which the IC50 at HCV polymerase was 44 nM; in assay [1] (between 100 nM and 5.0 uM), 100 to 5000 nM.

With `CCN(CC)c1ccc(S(=O)(=O)N2CC(=O)N(c3cc(-c4ccccc4)sc3C(=O)O)[C@H](C3CCCCC3)C2)cn1` [Compound 177, 3-[(R)-2-Cyclohexyl-4-(6-diethylamino-pyridine-3-sulfonyl)-6-oxo-piperazin-1-yl]-5-phenyl-thiophene-2-carboxylic acid], the values for the IC50 (at HCV polymerase; in assay [1] (setting [2])) were 2 nM and no more than 100 nM, respectively.

On to `CC1(C)OC[C@@H](C2CCCCC2)N(c2cc(-c3ccc(Cl)cc3)sc2C(=O)O)C1=O` [Compound 315, 5-(4-Chloro-phenyl)-3-((R)-5-cyclohexyl-2,2-dimethyl-3-oxo-morpholin-4-yl)-thiophene-2-carboxylic acid], for which the IC50 at HCV polymerase was 6 nM; in assay [1] (setting [2]), no more than 100 nM.

Regarding `Cc1ccc(-c2cc(N3C(=O)CN(S(=O)(=O)c4ccc(N5CCCOCC5)nc4)C[C@H]3C3CCCCC3)c(C(=O)O)s2)cc1` [Compound 188, 3-[(R)-2-Cyclohexyl-4-(6-[1,4]oxazepan-4-yl-pyridine-3-sulfonyl)-6-oxo-piperazin-1-yl]-5-p-tolyl-thiophene-2-carboxylic acid], the IC50 at HCV polymerase is 1 nM; in assay [1] (setting [2]), no more than 100 nM.

As to `CC(C)(C)C#Cc1cc(N2C(=O)[C@](C)(CCCO)OC[C@H]2C2CCCCC2)c(C(=O)O)s1` [Compound 7, 3-[(2S,5R)-5-Cyclohexyl-2-(3-hydroxy-propyl)-2-methyl-3-oxo-morpholin-4-yl]-5-(3,3-dimethyl-but-1-ynyl)-thiophene-2-carboxylic acid], the IC50 at HCV polymerase was 6 nM; in assay [1] (setting [2]), no more than 100 nM.

Take `C[C@@H]1CCCN1c1ccc(S(=O)(=O)N2CC(=O)N(c3cc(-c4ccccc4)sc3C(=O)O)[C@H](C3CCCCC3)C2)cn1` [Compound 130, 3-{(R)-2-Cyclohexyl-4-[6-((R)-2-methyl-pyrrolidin-1-yl)-pyridine-3-sulfonyl]-6-oxo-piperazin-1-yl}-5-phenyl-thiophene-2-carboxylic acid]: the IC50 on HCV polymerase is 1 nM; in assay [1] (setting [2]) it was no more than 100 nM.

For `O=C(O)c1sc(-c2ccccc2)cc1N1C(=O)CN(S(=O)(=O)c2ccc(C3=CCCC3)nc2)C[C@H]1C1CCCCC1` [Compound 215, 3-[(R)-2-Cyclohexyl-4-(6-cyclopent-1-enyl-pyridine-3-sulfonyl)-6-oxo-piperazin-1-yl]-5-phenyl-thiophene-2-carboxylic acid], the IC50 at HCV polymerase is 2 nM; in assay [1] (between 100 nM and 5.0 uM) it was 100 to 5000 nM.

Consider `C[C@@H]1COCCN1c1ccc(S(=O)(=O)N2CC(=O)N(c3cc(-c4ccccc4)sc3C(=O)O)[C@H](C3CCCCC3)C2)cn1` [Compound 225, 3-{(R)-2-Cyclohexyl-4-[6-((R)-3-methyl-morpholin-4-yl)-pyridine-3-sulfonyl]-6-oxo-piperazin-1-yl}-5-phenyl-thiophene-2-carboxylic acid], for which the IC50 was 1 nM at HCV polymerase and no more than 100 nM in assay [1] (setting [2]).

As to `O=C(O)c1sc(-c2ccccc2)cc1N1C(=O)CN(S(=O)(=O)c2ccc(N3C4CCC3CC4)nc2)CC1C1CCCCC1` (centres unmarked) [Compound 125, 3-{4-[6-(7-Aza-bicyclo[2.2.1]hept-7-yl)-pyridine-3-sulfonyl]-2-cyclohexyl-6-oxo-piperazin-1-yl}-5-phenyl-thiophene-2-carboxylic acid], the IC50 at HCV polymerase was 18 nM; in assay [1] (setting [2]) it was no more than 100 nM.

Regarding `C[C@@H]1CCCN1c1ccc(S(=O)(=O)N2CC(=O)N(c3cc(-c4ccccc4)sc3C(=O)O)[C@@H](C3CCCCC3)C2)cn1` [Compound 131, 3-{(S)-2-Cyclohexyl-4-[6-((R)-2-methyl-pyrrolidin-1-yl)-pyridine-3-sulfonyl]-6-oxo-piperazin-1-yl}-5-phenyl-thiophene-2-carboxylic acid], the IC50 is 261 nM at HCV polymerase; 100 to 5000 nM in assay [1] (between 100 nM and 5.0 uM).

Take `Cc1cc(S(=O)(=O)N2CC(=O)N(c3cc(-c4ccccc4)sc3C(=O)O)[C@H](C3CCCCC3)C2)cnc1N1CCCC1` [Compound 172, 3-[(R)-2-Cyclohexyl-4-(5-methyl-6-pyrrolidin-1-yl-pyridine-3-sulfonyl)-6-oxo-piperazin-1-yl]-5-phenyl-thiophene-2-carboxylic acid]: the IC50 is 1.2 nM on HCV polymerase and no more than 100 nM in assay [1] (setting [2]).

On to `O=C(O)c1sc(-c2ccccc2)cc1N1C(=O)CN(S(=O)(=O)Cc2ccccc2)CC1C1CCCCC1` (centres unmarked) [Compound 27, 3-(2-Cyclohexyl-6-oxo-4-phenylmethanesulfonyl-piperazin-1-yl)-5-phenyl-thiophene-2-carboxylic acid], for which the IC50 on HCV polymerase is 22 nM; in assay [1] (between 100 nM and 5.0 uM), 100 to 5000 nM.

Turning to `O=C(O)c1sc(-c2ccccc2)cc1N1C(=O)CN(S(=O)(=O)c2ccc(N3CCN4CCCC4C3)nc2)C[C@H]1C1CCCCC1` (stereo partly drawn) [Compound 157, 3-{(R)-2-Cyclohexyl-4-[6-(hexahydro-pyrrolo[1,2-a]pyrazin-2-yl)-pyridine-3-sulfonyl]-6-oxo-piperazin-1-yl}-5-phenyl-thiophene-2-carboxylic acid], the IC50 at HCV polymerase was 1 nM; in assay [1] (setting [2]), no more than 100 nM.

For the compound `Cn1cc(-c2ccc(S(=O)(=O)N3CC(=O)N(c4cc(-c5ccccc5)sc4C(=O)O)[C@H](C4CCCCC4)C3)cn2)cn1` [Compound 222, 3-{(R)-2-Cyclohexyl-4-[6-(1-methyl-1H-pyrazol-4-yl)-pyridine-3-sulfonyl]-6-oxo-piperazin-1-yl}-5-phenyl-thiophene-2-carboxylic acid], the IC50 was 2 nM at HCV polymerase and no more than 100 nM in assay [1] (setting [2]).

As for `COc1cccc(S(=O)(=O)N2CC(=O)N(c3cc(C#CC(C)(C)C)sc3C(=O)O)[C@H](C3CCCCC3)C2)c1` [Compound 257, 3-[(R)-2-Cyclohexyl-4-(3-methoxy-benzenesulfonyl)-6-oxo-piperazin-1-yl]-5-(3,3-dimethyl-but-1-ynyl)-thiophene-2-carboxylic acid], the IC50 is 2 nM on HCV polymerase and no more than 100 nM in assay [1] (setting [2]).
